Measurements from patent US8124764B2, “Fused heterocyclyc inhibitor compounds” (Gilead Sciences, Inc., priority 2008, dated 2012).

Columns and labels:
HDAC 1 = HDAC 1 (Homo sapiens, UniProt Q13547); assay: HDAC 1 inhibition assay with about 3 hours enzyme/compound preincubation (fluorophore/quencher peptide substrate); assay type: biochemical; settings: 3-hour preincubation of enzyme with compound; read-out: HDAC 1 inhibitory activity (IC50 [μM]) (3-hour preincubation)
Method: HDAC inhibitory activity of the compound of Example 1 was measured by two types of assays in which HDAC 1 was used as a target molecule. The first assay was carried out without preincubation after addition of the enzyme. The test compound was suspended in and titrated in dmso. It was then spotted into a 384-well test plate. The enzyme, HDAC 1, was diluted in assay buffer containing 25 mM Tris-HCl (pH 8.0), 137 mM NaCl, 2.7 mM KCl, and 0.01% Tween-20 and added to the pre-spotted compound. The peptide substrate containing a fluorophore/quencher pair was diluted in the same assay buffer and added to the compound/enzyme mix initiating the reaction. The reaction incubated at room temperature for about 45 minutes. A concentrated developer solution was diluted in the assay buffer, and added to the reaction. The reaction was incubated at room temperature for about 15 minutes and relative fluorescence was read on an instrument reader.
The second assay is similar to the first assay described above, except that preincubation is carried out for about 3 hours after the enzyme is introduced. The test compound was suspended in, and titrated in DMSO. It was then spotted into a 384-well test plate. The enzyme, HDAC 1, was diluted in the same assay buffer as used in the previous assay and added to the pre-spotted compound. The enzyme/compound mix was incubated at room temperature for about 3 hours. The peptide substrate containing a fluorophore/quencher pair was diluted in the assay buffer and added to the compound/enzyme mix initiating the reaction. The reaction incubated at room temperature for 45 minutes. A concentrated developer solution was diluted in the assay buffer, and added to the reaction. The reaction was incubated at room temperature for about 15 minutes and relative fluorescence was read on an instrument reader.

CDK2 = CDK2 (Homo sapiens, UniProt P24941); assay: CDK2 inhibition; assay type: biochemical

Chain of HDAC 1 (Q13547 whole entry, species assumed): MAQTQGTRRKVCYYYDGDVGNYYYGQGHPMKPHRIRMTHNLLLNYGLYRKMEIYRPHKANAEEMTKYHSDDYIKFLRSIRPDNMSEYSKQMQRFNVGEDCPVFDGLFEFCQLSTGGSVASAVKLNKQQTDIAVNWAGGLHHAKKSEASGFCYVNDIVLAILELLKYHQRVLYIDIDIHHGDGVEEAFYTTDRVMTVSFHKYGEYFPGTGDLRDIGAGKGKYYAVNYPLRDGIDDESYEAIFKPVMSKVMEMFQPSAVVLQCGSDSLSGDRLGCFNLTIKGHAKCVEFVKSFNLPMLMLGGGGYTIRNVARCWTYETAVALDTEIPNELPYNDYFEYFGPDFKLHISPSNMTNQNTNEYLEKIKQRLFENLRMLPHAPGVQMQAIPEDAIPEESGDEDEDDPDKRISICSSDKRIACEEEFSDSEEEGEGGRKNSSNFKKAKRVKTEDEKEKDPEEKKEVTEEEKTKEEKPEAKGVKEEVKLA

IC50 (HDAC 1) [µM] | IC50 (CDK2) [µM] | SMILES
0.165 | 0.9 | Cc1nc2cnccn2c1-c1ccnc(Nc2ccc(C(=O)Nc3ccccc3N)cc2)n1 [Example 20, N-(2-Amino-phenyl)-4-[4-(2-methyl-imidazo[1,2-a]pyrazin-3-yl)-pyrimidin-2-ylamino]-benzamide]
0.178 | 0.35 | Cc1nc2c(F)cccn2c1-c1ccnc(Nc2ccc(C(=O)Nc3ccccc3N)cc2)n1 [Example 45, N-(2-Amino-phenyl)-4-[4-(8-fluoro-2-methyl-imidazo[1,2-a]pyridin-3-yl)-pyrimidin-2-ylamino]-benzamide]
0.089 | 0.07 | Cc1nc2ccc(C(F)(F)F)cn2c1-c1ccnc(Nc2ccc(C(=O)NO)cc2)n1 [Example 11, N-Hydroxy-4-[4-(2-methyl-6-trifluoromethyl-imidazo[1,2-a]pyridin-3-yl)-pyrimidin-2-ylamino]-benzamide]
0.141 | 2.58 | Cc1nc2cc(NCCN(C)C)ccn2c1-c1ccnc(Nc2ccc(C(=O)Nc3ccccc3N)cc2)n1 [Example 32, N-(2-Amino-phenyl)-4-{4-[7-(2-dimethylamino-ethylamino)-2-methyl-imidazo[1,2-a]pyridin-3-yl]-pyrimidin-2-ylamino}-benzamide]
0.02 | 0.0393 | O=C(NO)c1ccc(Nc2nccc(-c3cnc4ccccn34)n2)cc1 [Example 5, N-Hydroxy-4-(4-imidazo[1,2-a]pyridin-3-yl-pyrimidin-2-ylamino)-benzamide]
~0.09 | 0.06 | COc1ccn2c(-c3ccnc(Nc4ccc(C(=O)Nc5ccccc5N)cc4)n3)c(C)nc2c1 [Example 14, N-(2-Amino-phenyl)-4-[4-(7-methoxy-2-methyl-imidazo[1,2-a]pyridin-3-yl)-pyrimidin-2-ylamino]-benzamide]
> 50 | 0.144 | Nc1ccccc1NC(=O)c1cccc(Nc2nccc(-c3cnc4ccccn34)n2)c1 [Example 8, N-(2-Amino-phenyl)-3-(4-imidazo[1,2-a]pyridin-3-yl-pyrimidin-2-ylamino)-benzamide]
0.0239 | 0.59 | Cc1nc2cccnn2c1-c1ccnc(Nc2ccc(C(=O)Nc3ccccc3N)cc2)n1 [Example 18, N-(2-Amino-phenyl)-4-[4-(2-methyl-imidazo[1,2-b]pyridazin-3-yl)-pyrimidin-2-ylamino]-benzamide]
0.0392 | 0.037 | Cc1nc2cc(C(F)(F)F)ccn2c1-c1ccnc(Nc2ccc(C(=O)NO)cc2)n1 [Example 9, N-Hydroxy-4-[4-(2-methyl-7-trifluoromethyl-imidazo[1,2-a]pyridin-3-yl)-pyrimidin-2-ylamino]-benzamide]
1.56 | 0.86 | Cc1nc2ccccn2c1-c1ccnc(Nc2ccc(C(=O)Nc3ccccc3N)cc2F)n1 [Example 34, N-(2-Amino-phenyl)-3-fluoro-4-[4-(2-methyl-imidazo[1,2-a]pyridin-3-yl)-pyrimidin-2-ylamino]-benzamide]
0.132 | 1.88 | Cc1nc2ccc(C(=O)NCCN(C)C)cn2c1-c1ccnc(Nc2ccc(C(=O)Nc3ccccc3N)cc2)n1 [Example 37, 3-(2-(4-(2-aminophenylcarbamoyl)phenylamino)pyrimidin-4-yl)-N-(2-(dimethylamino)ethyl)-2-methylimidazo[1,2-a]pyridine-6-carboxamide]
> 10 | 1.36 | Cc1nc2ccccn2c1-c1ccnc(Nc2nc(C(=O)Nc3ccccc3N)cs2)n1 [Example 62, N-(2-aminophenyl)-2-(4-(2-methylimidazo[1,2-a]pyridin-3-yl)pyrimidin-2-ylamino)thiazole-4-carboxamide]
0.0206 | > 40 | Cc1nc2ccccn2c1-c1ccnc(Nc2cnc(C(=O)Nc3ccccc3N)cn2)n1 [Example 68, N-(2-aminophenyl)-5-(4-(2-methylimidazo[1,2-a]pyridin-3-yl)pyrimidin-2-ylamino)pyrazine-2-carboxamide]
0.146 | 0.134 | Cc1nc2ccccn2c1-c1ccnc(Nc2ccc(C(=O)Nc3ccccc3N)cc2)n1 [Example 2, N-(2-Amino-phenyl)-4-(4-(2-methylimidazo[1,2-a]pyridin-3-yl)-pyrimidin-2-ylamino)-benzamide]
0.621 | 2.53 | Cc1nc2cc(C(=O)O)ccn2c1-c1ccnc(Nc2ccc(C(=O)Nc3ccccc3N)cc2)n1 [Example 28, 3-{2-[4-(2-Amino-phenylcarbamoyl)-phenylamino]-pyrimidin-4-yl}-2-methyl-imidazo[1,2-a]pyridine-7-carboxylic acid]
